Results reported in PMC4638363, “Linear Interaction Energy Based Prediction of Cytochrome P450 1A2 Binding Affinities with Reliability Estimation” (PLoS ONE, 2015).
Read-outs that look alike come from different tables or passages of the source.

Experiments:
CYP 1A2 [1] = settings: Table A, Source 1; ref Bayer HealthCare databases for CYP inhibition (eTOX); cited from earlier work
CYP 1A2 [2] = settings: for ΔG bind (lit): from literature IC50, Source 2 (Ref. 58)
CYP 1A2 [3] = settings: cited from earlier work
human CYP 1A2 [4] = target: T1, human CYP 1A2 (Homo sapiens, UniProt P05177); assay: in-house CYP 1A2 inhibition assay with 7-methoxyresorufin as substrate (resorufin fluorescence); settings: for ΔΔG bind: difference in ΔG bind between literature and in-house determined values; for ΔG bind (inhouse): from in-house IC50 via Cheng-Prusoff and RTln(Ki)
T1 sequence (P05177 1-516): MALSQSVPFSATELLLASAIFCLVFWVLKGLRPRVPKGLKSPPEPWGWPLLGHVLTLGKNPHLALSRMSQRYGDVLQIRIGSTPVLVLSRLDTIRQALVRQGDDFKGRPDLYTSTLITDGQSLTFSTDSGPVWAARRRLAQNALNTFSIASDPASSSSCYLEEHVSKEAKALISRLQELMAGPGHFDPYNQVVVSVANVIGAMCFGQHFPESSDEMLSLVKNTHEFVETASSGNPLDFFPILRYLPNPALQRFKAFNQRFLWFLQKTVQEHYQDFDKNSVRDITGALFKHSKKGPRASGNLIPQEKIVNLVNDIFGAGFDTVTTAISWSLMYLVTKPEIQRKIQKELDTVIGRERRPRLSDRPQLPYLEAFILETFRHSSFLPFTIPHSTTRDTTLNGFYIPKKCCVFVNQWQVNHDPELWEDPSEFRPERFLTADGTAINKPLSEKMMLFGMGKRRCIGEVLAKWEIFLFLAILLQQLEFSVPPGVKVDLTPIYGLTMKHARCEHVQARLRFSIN

CYP 1A2 [5] = settings: literature; cited from earlier work
recombinant CYP 1A2 [6] = tested on: recombinant CYP 1A2
human CYP 1A2 [7] = target: T1, human CYP 1A2
recombinant CYP 1A2 [8] = settings: cited from earlier work
recombinant CYP 1A2 [9] = settings: for ΔGbind^Obs: from literature IC50, Source 3
[10] = read-out: IC 50 (lit), Source 2, recombinant CYPs, phenacetin O-deethylation
[11] = read-out: IC 50 (lit), Source 3, recombinant CYP 1A2, 7-ethoxyresorufin O-dealkylation
[12] = Table A, Source 3, ref Korhonen et al., J. Med. Chem. 2005

N[C@@H]1C[C@H]1c1ccccc1 (racemic) [Compound 15, Tranylcypromine]
IC50 (CYP 1A2 [1]): 10.4 µM

Cc1c2ccncc2c(C)c2c1[nH]c1ccccc12 [Compound 5, Ellipticine]
ΔG bind (lit) (CYP 1A2 [2]): -9.99 ± 0.048 kcal/mol
IC50 (CYP 1A2 [3]; [10]): 0.11 ± 0.01 µM
IC50 (human CYP 1A2 [4]): 0.007 ± 0.002 µM
ΔΔG bind (human CYP 1A2 [4]): 1.65 kcal/mol
ΔG bind (inhouse) (human CYP 1A2 [4]): -11.6 ± 0.17 kcal/mol

O=c1cc(-c2ccccc2)oc2c1ccc1ccccc12 [Compound 7, alpha-Naphthoflavone]
Reported inhibition mechanism (CYP 1A2 [5]): Competitive/uncompetitive^65

Clc1ccccc1CN1CCc2sccc2C1 [Compound 8, Ticlopidine]
Reported inhibition mechanism (CYP 1A2 [5]): Competitive^66

Oc1cccc2ccccc12 [Compound 9, 1-naphthol]
ΔG bind (lit) (recombinant CYP 1A2 [6]; human): -7.96 ± 0.14 kcal/mol
ΔGbind^Obs (recombinant CYP 1A2 [6]; human): -7.96 kcal/mol
Residual (ΔGbind^Obs–ΔG bind ^Calc), error in prediction (human CYP 1A2 [7]): -2.77 kcal/mol
IC50 (recombinant CYP 1A2 [8]; [11]): 3.2 ± 0.8 µM
IC50 (human CYP 1A2 [4]): 2 ± 0.7 µM
ΔΔG bind (human CYP 1A2 [4]): 0.287 kcal/mol
ΔG bind (inhouse) (human CYP 1A2 [4]): -8.25 ± 0.22 kcal/mol

COc1ccc(C=O)cc1 [Compound 11, p-methoxybenzaldehyde]
ΔG bind (lit) (recombinant CYP 1A2 [6]): -5.31 ± 0.19 kcal/mol
ΔGbind^Obs (recombinant CYP 1A2 [6]): -5.31 kcal/mol
Residual (ΔGbind^Obs–ΔG bind ^Calc), error in prediction (human CYP 1A2 [7]): -0.43 kcal/mol
IC50 (recombinant CYP 1A2 [8]; [11]): 270 ± 85 µM
ΔΔG bind (human CYP 1A2 [4]): -0.239 kcal/mol
ΔG bind (inhouse) (human CYP 1A2 [4]): -5.07 ± 0.048 kcal/mol
IC50 (human CYP 1A2 [4]; read-out: IC 50 (inhouse)): 410 ± 32 µM

Cc1ccc(CCN)cc1 [Compound 12, p-tolylethylamine]
Residual (ΔGbind^Obs–ΔG bind ^Calc), error in prediction (human CYP 1A2 [7]; test set): -1.53 kcal/mol
IC50 (recombinant CYP 1A2 [8]; [11]): 14 ± 2.5 µM
ΔG bind (lit) (recombinant CYP 1A2 [9]; from literature IC50, Source 3 (Ref. 25)): -7.07 ± 0.12 kcal/mol
ΔGbind^Obs (recombinant CYP 1A2 [9]; test set): -7.07 kcal/mol
ΔΔG bind (human CYP 1A2 [4]): -1.27 kcal/mol
ΔG bind (inhouse) (human CYP 1A2 [4]): -5.81 ± 0.17 kcal/mol
IC50 (human CYP 1A2 [4]; read-out: IC 50 (inhouse), 7-methoxyresorufin at Km 2.5 μM, triplicate): 120 ± 33 µM

Fc1ccc([C@@H]2CCNC[C@H]2COc2ccc3c(c2)OCO3)cc1 [Compound 18, Paroxetine]
IC50 (CYP 1A2 [1]): 23.5 µM

COC(=O)[C@H](c1ccccc1Cl)N1CCc2sccc2C1 [Compound 19, Clopidogrel]
IC50 (CYP 1A2 [1]): 24.2 µM
Reported inhibition mechanism (CYP 1A2 [5]): Substrate^69

C#C[C@]1(O)CC[C@H]2[C@@H]3CCC4=Cc5oncc5C[C@]4(C)[C@H]3CC[C@@]21C [Compound 21, Danazol]
IC50 (CYP 1A2 [1]): 45.3 µM

Clc1ccccc1C(c1ccccc1)(c1ccccc1)n1ccnc1 [Compound 22, Clotrimazole]
IC50 (CYP 1A2 [1]): 5.83 µM

Cc1nc2c([nH]1)c(=O)n(C)c(=O)n2Cc1ccco1 [Compound 24, Furafylline]
Reported inhibition mechanism (CYP 1A2 [5]): Mechanism-based^71

c1ccc2ccccc2c1 [Compound 27, Naphthalene]
Residual (ΔGbind^Obs—ΔGbind^Calc) (human CYP 1A2 [7]): -0.55 kcal/mol
IC50 (recombinant CYP 1A2 [8]; [12]): 700 µM
ΔGbind^Obs (recombinant CYP 1A2 [9]; training set): -4.73 kcal/mol

Cc1cccc2ccccc12 [Compound 28, 1-Methylnaphthalene]
ΔGbind^Obs (recombinant CYP 1A2 [6]; human): -5.86 kcal/mol
Residual (ΔGbind^Obs—ΔGbind^Calc) (human CYP 1A2 [7]; training set): -0.502 kcal/mol
IC50 (recombinant CYP 1A2 [8]; [12]): 110 µM

Clc1cccc2ccccc12 [Compound 29, 1-Chloronaphthalene]
ΔGbind^Obs (recombinant CYP 1A2 [6]; human): -6.31 kcal/mol
Residual (ΔGbind^Obs–ΔG bind ^Calc), error in prediction (human CYP 1A2 [7]): -0.932 kcal/mol
IC50 (recombinant CYP 1A2 [8]; [12]): 50 µM

Cc1ccc2ccccc2c1 [Compound 30, 2-Methylnaphthalene]
ΔGbind^Obs (recombinant CYP 1A2 [6]; human): -5.78 kcal/mol
Residual (ΔGbind^Obs—ΔGbind^Calc) (human CYP 1A2 [7]): -0.789 kcal/mol
IC50 (recombinant CYP 1A2 [8]): 120 µM

CCc1ccc2ccccc2c1 [Compound 31, 2-Ethylnaphthalene]
ΔGbind^Obs (recombinant CYP 1A2 [6]; human): -6.91 kcal/mol
Residual (ΔGbind^Obs–ΔG bind ^Calc), error in prediction (human CYP 1A2 [7]; test set): -0.789 kcal/mol
IC50 (recombinant CYP 1A2 [8]; [12]): 19 µM

Fc1ccc2ccccc2c1 [Compound 32, 2-Fluoronaphthalene]
Residual (ΔGbind^Obs—ΔGbind^Calc) (human CYP 1A2 [7]; training set): -1.34 kcal/mol
IC50 (recombinant CYP 1A2 [8]; [12]): 49 µM
ΔGbind^Obs (recombinant CYP 1A2 [9]; training set): -6.33 kcal/mol

Cc1ccc(C)c2ccccc12 [Compound 36, 1,4-Dimethylnaphthalene]
ΔGbind^Obs (recombinant CYP 1A2 [6]; human): -7.89 kcal/mol
Residual (ΔGbind^Obs—ΔGbind^Calc) (human CYP 1A2 [7]; training set): -1.77 kcal/mol
IC50 (recombinant CYP 1A2 [8]; [12]): 3.6 µM

Cc1cccc2c(C)cccc12 [Compound 39, 1,5-Dimethylnaphthalene]
ΔGbind^Obs (recombinant CYP 1A2 [6]; human): -6.43 kcal/mol
Residual (ΔGbind^Obs–ΔG bind ^Calc), error in prediction (human CYP 1A2 [7]): -0.478 kcal/mol
IC50 (recombinant CYP 1A2 [8]): 42 µM

Cc1ccc2c(C)cccc2c1 [Compound 40, 1,6-Dimethylnaphthalene]
ΔGbind^Obs (recombinant CYP 1A2 [6]; human): -6.74 kcal/mol
Residual (ΔGbind^Obs–ΔG bind ^Calc), error in prediction (human CYP 1A2 [7]; test set): -0.454 kcal/mol
IC50 (recombinant CYP 1A2 [8]; [12]): 25 µM
